Measured values as given in ChEMBL document CHEMBL1154712, “Synthesis and cytotoxic activity of psorospermin and acronycine analogues in the 3-propyloxy-acridin-9(10H)-one and -benzo[b]acridin-125H-one series” (Eur J Med Chem, 2010).

Legend:
[1] = Cytotoxicity against human KB3-1 cells after 96 hrs by microculture tetrazolium assay; format: functional, cell-based; details: KB 3-1, 96 h
L1210 = assay: Cytotoxicity against mouse L1210 cells after 48 hrs by microculture tetrazolium assay; format: functional, cell-based; details: L1210, 48 h

## C=CCOc1cc(OC)c2c(=O)c3ccccc3n(C)c2c1
[1]
  IC50: 10.4 µM
L1210
  IC50: 13.4 µM

## C=CCOc1cc(OC)c2c(=O)c3cc4ccccc4cc3n(C)c2c1
[1]
  IC50: 3.7 µM
L1210
  IC50: 33 µM

## COc1cc2c(c3c1c(=O)c1ccccc1n3C)C[C@H]([C@@]1(C)CO1)O2 (racemic)
[1]
  IC50: 0.06 µM

## COc1cc2c(c3c1c(=O)c1cc4ccccc4cc1n3C)C[C@H]([C@@]1(C)CO1)O2 (racemic)
[1]
  IC50: 0.08 µM
L1210
  IC50: 0.04 µM

## COc1cc(OCC2COC(=O)O2)cc2c1c(=O)c1cc3ccccc3cc1n2C (racemic)
[1]
  IC50: 23.2 µM
L1210
  IC50: 18.8 µM

## COc1cc(OCC(COC(C)=O)OC(C)=O)cc2c1c(=O)c1ccccc1n2C (racemic)
[1]
  IC50: 37.8 µM
L1210
  IC50: 40.6 µM

## COc1cc(OCC2CO2)cc2c1c(=O)c1ccccc1n2C (racemic)
[1]
  IC50: 0.12 µM
L1210
  IC50: 0.09 µM

## COc1cc(OCC(O)COC(C)=O)cc2c1c(=O)c1ccccc1n2C (racemic)
[1]
  IC50: 22.5 µM
L1210
  IC50: 32.4 µM

## COc1cc(OCC2COC(=O)O2)cc2c1c(=O)c1ccccc1n2C (racemic)
[1]
  IC50: 24.1 µM
L1210
  IC50: 37.2 µM

## COc1cc(OCC(O)CO)cc2c1c(=O)c1cc3ccccc3cc1n2C (racemic)
[1]
  IC50: 65 µM
L1210
  IC50: 79 µM

## COc1cc(OCC(COC(C)=O)OC(C)=O)cc2c1c(=O)c1cc3ccccc3cc1n2C (racemic)
[1]
  IC50: 7.9 µM
L1210
  IC50: 3.1 µM

## COc1cc(OCC2CO2)cc2c1c(=O)c1cc3ccccc3cc1n2C (racemic)
[1]
  IC50: 0.2 µM
L1210
  IC50: 0.03 µM

## COc1cc(OCC(O)COC(C)=O)cc2c1c(=O)c1cc3ccccc3cc1n2C (racemic)
[1]
  IC50: 5.8 µM
L1210
  IC50: 6.2 µM

## COc1cc(OCC(O)CO)cc2c1c(=O)c1ccccc1n2C (racemic)
[1]
  IC50: 47.5 µM
L1210
  IC50: 59.8 µM

## COc1cc2c(c3c1c(=O)c1cc4ccccc4cc1n3C)[C@@H](OC(C)=O)[C@@H](OC(C)=O)C(C)(C)O2 (relative stereo)
[1]
  IC50: 0.09 µM
